Patent publication US9365605B2, “Cyclic nucleotide analogs” (priority 2010, dated 2016)
Like-named read-outs stand apart in the source and are kept apart here.

System: Huh-7 cells containing the self-replicating, subgenomic HCV replicon with a stable luciferase (LUC) reporter
Assay: HCV replicon assay (luciferase reporter, Bright-Glo)
Format: cell-based
Procedure: Huh-7 cells containing the self-replicating, subgenomic HCV replicon with a stable luciferase (LUC) reporter were cultured in Dulbecco's modified Eagle's medium (DMEM) containing 2 mM L-glutamine and supplemented with 10% heat-inactivated fetal bovine serum (FBS), 1% penicillin-streptomyocin, 1% nonessential amino acids, and 0.5 mg/mL G418.
Determination of 50% inhibitory concentration (EC50) of compounds in HCV replicon cells were performed by the following procedure. On the first day, 5,000 HCV replicon cells were plated per well in a 96-well plate. On the following day, test compounds were solubilized in 100% DMSO to 100× the desired final testing concentration. Each compound was then serially diluted (1:3) up to 9 different concentrations. Compounds in 100% DMSO are reduced to 10% DMSO by diluting 1:10 in cell culture media. The compounds were diluted to 10% DMSO with cell culture media, which were used to dose the HCV replicon cells in 96-well format. The final DMSO concentration was 1%. The HCV replicon cells were incubated at 37° C. for 72 hours. At 72 hours, cells were processed when the cells are still subconfluent. Compounds that reduce the LUC signal are determined by Bright-Glo Luciferase Assay (Promega, Madison, Wis.). % Inhibition was determined for each compound concentration in relation to the control cells (untreated HCV replicon) to calculate the EC50.
Compounds of Formula (I) are active in the replicon assay. The antiviral activity of exemplary compounds is shown in Table 5, where ‘A’ indicates an EC50<1 μM, ‘B’ indicates an EC50≧1 μM and <10 μM, and ‘C’ indicates an EC50≧10 μM and <100 μM.

SMILES: COc1nc(N)nc2c1ncn2[C@@H]1O[C@@H]2COP(=S)(OC)O[C@H]2[C@@]1(C)O (some centres unmarked) [Compound 1a, (Rp/Sp) 2′-C-methyl-6-O-methyl-guanosine-3′,5′-cyclic-O-methyl phosphorothioate]
- EC50 (Hepatitis C virus, Huh-7, 72 h): < 1 µM

SMILES: COP1(=O)O[C@H]2[C@@H](O)[C@H](n3cnc4c(N)ncnc43)O[C@@H]2[C@H](C)O1 (some centres unmarked) [Compound 8a]
- EC50 (Hepatitis C virus, HCV replicon cells (Huh-7), 72 hours incubation, LUC signal, read-out: EC50): 10 to 100 µM

SMILES: COP1(=S)OC[C@H]2O[C@@H](n3ccc(=O)[nH]c3=O)[C@](C)(O)[C@@H]2O1 (some centres unmarked) [Compound 10a, 1-(7-Hydroxy-2-methoxy-7-methyl-2-thioxo-tetrahydro-2l5-furo[3,2-d][1,3,2]dioxaphosphinin-6-yl)-1H-pyrimidine-2,4-dione]
- EC50 (Hepatitis C virus, Huh-7, 72 h): 10 to 100 µM

SMILES: CC(C)OP1(=S)OC[C@H]2O[C@@H](n3ccc(=O)[nH]c3=O)[C@](C)(O)[C@@H]2O1 (some centres unmarked) [Compound 11a, 1-(7-Hydroxy-2-isopropoxy-7-methyl-2-thioxo-tetrahydro-2l5-furo[3,2-d][1,3,2]dioxaphosphinin-6-yl)-1H-pyrimidine-2,4-dione]
- EC50 (Hepatitis C virus, Huh-7, 72 h): 1 to 10 µM

SMILES: COc1nc(N)nc2c1ncn2[C@@H]1O[C@@H]2COP(=O)(SCOC(=O)C(C)(C)C)O[C@H]2[C@@]1(C)O (some centres unmarked) [Compound 12a, 2′-C,O^6-Dimethylguanosine 3′,5′-cyclic O-pivaloyloxymethyl phosphorothioate]
- EC50 (HCV replicon cells (Huh-7), 72 hours incubation, LUC signal, read-out: EC50): < 1 µM
